Experimental data taken from US20260327211A1, “MODULATORS OF A POTASSIUM CHANNEL AND OF TRPV1 CHANNEL AND USES THEREOF” (Bsense Bio Therapeutics Ltd., priority 2023, published 2026).
Values after ≈ are worked out from the molar mass of the structure shown. Like-named read-outs stand apart in the source and are kept apart here.

How the values were obtained:
[1] = molecular target: T1, hTRPV1 (Homo sapiens, UniProt Q8NER1); assay: TRPV1 HCS, Fluo-8 calcium flux, capsaicin activation, CHO cells expressing hTRPV1; assay type: cell-based
T1 construct: CDS of NM_080704.4, inserted into the multiple cloning site of pcDNA3.1(+); host or cells: CHO/hKv7.2/3
T1 sequence (Q8NER1 whole entry): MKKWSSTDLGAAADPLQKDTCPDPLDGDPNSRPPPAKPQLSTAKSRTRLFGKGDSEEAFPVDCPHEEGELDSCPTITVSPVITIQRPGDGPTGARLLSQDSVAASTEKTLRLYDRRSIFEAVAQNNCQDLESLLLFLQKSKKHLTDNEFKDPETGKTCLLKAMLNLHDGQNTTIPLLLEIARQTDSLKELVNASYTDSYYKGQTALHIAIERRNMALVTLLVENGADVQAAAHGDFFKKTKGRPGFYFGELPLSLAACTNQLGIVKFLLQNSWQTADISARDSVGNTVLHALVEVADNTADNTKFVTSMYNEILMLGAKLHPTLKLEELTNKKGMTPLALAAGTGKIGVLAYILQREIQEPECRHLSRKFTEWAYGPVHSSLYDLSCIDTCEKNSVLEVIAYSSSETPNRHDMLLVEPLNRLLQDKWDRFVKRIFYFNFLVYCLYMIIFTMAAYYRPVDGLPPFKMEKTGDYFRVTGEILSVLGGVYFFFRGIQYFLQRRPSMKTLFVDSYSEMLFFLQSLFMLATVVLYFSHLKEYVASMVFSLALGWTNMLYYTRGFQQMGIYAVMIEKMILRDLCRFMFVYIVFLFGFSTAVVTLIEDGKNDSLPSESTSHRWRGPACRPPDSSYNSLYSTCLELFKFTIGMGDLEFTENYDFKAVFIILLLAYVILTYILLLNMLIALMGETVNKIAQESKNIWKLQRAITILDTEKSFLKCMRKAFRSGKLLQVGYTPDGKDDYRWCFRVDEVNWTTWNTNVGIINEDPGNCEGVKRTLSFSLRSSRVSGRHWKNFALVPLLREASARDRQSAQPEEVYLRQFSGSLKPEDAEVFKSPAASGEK
Description: Cell culture: Chinese hamster ovary (CHO) cell-line cells with constitutive expression of human hTRPV1 channels (B'SYS GmbH, Switzerland) were cultured in F-12 nutrient mixture (Biological Industries) supplemented with 10% fetal bovine serum (Biological Industries) and 1% penicillin-streptomycin (Biological Industries) in a humidified 5% CO2 incubator at 37° C. To maintain the stable expression of hTRPV1, antibiotic selection (G418 500 μg/ml) was applied.
High content screen (HCS) using Fluo-8 No Wash Calcium flux Assay Kit: Fluo-8 No Wash Calcium Assay Kit (Abcam, ab112129) was used with CHO stably or transiently expressing TRPV1 to screen compounds against the hTRPV1 ion channel target. The cells were pre-loaded with Fluo-8AM which is membrane permeable. The AM groups of the Fluo-8AM were then being cleaved by intracellular esterase, trapping the Fluo8 in the cell. […] The relative fluorescence signal was calculated following background subtraction, comparing the fluorescence at each time point to its maximal level measured following Ionomycin application in the end.
According to optimization process to achieve uniform and consistent screening condition of molecules the following protocol was established: Cells were seeded in 384-well, black-walled, clear-bottomed, at a density of 5,000 cells per well 24 h before the assay conductance and incubated overnight in their normal growth medium. On the experiment day the medium was replaced in each well with HBSS, HEPES, and compound/vehicle (0.2% DMSO). Dye solution (prepared according to the manufacturer) was added to the wells and plates are incubated for 1.5 h light-protected in room temperature. The Tecan Spark plate reader injectors were then primed with capsaicin and Ionomycin for channel activation and data normalization, respectively. […] To calculate IC50 values, the data was fitted to sigmoidal regression line using Prism GraphPad. The fitting was constrained to a minimum of 0 and a maximal response of about 1 unless a different maximal response could be identified.

[2] = molecular target: T2, hKv7.2/3 (Homo sapiens, UniProt O43525+O43526); assay: Kv7.2/7.3 HCS, FLIPR potassium (thallium) assay, CHO/hKv7.2/3; assay type: cell-based
T2 construct: host or cells: CHO
T2 sequence (O43525 whole entry): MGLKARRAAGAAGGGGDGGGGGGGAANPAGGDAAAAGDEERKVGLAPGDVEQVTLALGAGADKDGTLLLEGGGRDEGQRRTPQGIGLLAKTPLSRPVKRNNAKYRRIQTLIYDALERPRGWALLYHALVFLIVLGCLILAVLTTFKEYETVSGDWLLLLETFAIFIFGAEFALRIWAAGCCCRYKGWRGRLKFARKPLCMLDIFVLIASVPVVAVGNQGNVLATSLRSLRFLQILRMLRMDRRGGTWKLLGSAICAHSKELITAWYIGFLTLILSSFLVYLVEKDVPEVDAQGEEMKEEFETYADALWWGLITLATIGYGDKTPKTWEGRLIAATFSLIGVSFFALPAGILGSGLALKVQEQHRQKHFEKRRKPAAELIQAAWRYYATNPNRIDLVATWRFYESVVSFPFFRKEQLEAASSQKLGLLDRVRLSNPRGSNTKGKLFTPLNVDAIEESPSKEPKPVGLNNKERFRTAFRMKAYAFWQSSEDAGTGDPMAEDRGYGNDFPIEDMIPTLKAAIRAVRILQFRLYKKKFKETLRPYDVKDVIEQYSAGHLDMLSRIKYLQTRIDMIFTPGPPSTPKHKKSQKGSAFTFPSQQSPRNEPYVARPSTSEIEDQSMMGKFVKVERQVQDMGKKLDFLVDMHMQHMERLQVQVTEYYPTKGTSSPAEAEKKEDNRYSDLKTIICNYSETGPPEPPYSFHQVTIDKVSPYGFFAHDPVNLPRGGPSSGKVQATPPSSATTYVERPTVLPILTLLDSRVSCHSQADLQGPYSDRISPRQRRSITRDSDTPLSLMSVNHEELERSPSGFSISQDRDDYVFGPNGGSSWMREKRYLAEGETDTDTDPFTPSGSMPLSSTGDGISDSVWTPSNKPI
T2 sequence (O43526 whole entry): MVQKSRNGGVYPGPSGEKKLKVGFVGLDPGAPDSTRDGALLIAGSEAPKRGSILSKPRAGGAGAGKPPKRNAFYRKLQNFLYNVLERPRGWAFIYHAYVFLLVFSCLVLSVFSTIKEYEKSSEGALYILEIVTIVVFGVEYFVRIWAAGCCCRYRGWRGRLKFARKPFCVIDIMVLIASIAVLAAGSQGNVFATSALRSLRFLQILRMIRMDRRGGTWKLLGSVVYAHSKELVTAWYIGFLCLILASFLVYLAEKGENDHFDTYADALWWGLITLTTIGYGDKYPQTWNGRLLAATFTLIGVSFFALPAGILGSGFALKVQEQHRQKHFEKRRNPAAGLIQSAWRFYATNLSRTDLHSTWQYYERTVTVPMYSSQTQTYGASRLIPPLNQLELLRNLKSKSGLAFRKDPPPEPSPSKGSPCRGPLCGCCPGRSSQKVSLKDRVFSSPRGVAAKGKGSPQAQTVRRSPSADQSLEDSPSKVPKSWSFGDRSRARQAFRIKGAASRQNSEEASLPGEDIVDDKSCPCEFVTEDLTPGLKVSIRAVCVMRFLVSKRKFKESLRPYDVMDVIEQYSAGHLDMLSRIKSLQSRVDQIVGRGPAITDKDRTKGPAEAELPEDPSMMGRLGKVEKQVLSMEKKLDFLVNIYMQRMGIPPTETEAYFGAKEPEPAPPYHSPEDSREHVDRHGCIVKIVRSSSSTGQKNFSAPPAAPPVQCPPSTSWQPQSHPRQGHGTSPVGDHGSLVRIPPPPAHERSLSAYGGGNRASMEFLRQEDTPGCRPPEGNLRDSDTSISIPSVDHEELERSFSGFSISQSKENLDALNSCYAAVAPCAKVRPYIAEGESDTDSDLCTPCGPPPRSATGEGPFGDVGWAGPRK
Outline: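 CHO cells stably expressing human Kv7.2/3, loaded with Tl+ indicator dye 1.5 h at room temperature in HBSS/HEPES with compound (0.2% DMSO). Channels activated by injection of 1 mM Tl2SO4 plus 5 mM K2SO4; fluorescence increase reflects Tl+ influx. EC50 from sigmoidal fit constrained to minimum 1, maximum ~3.6.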

[3] = Kinetic solubility; assay type: physicochemical; conditions: for solubility kinetic: hhbs buffer, aqueous buffer
Description: Solubility measurements were performed prior to each in vitro assay to ensure accurate dose response and reproducibility. Briefly, each compound was dissolved to 60 mM in DMSO and calibration curve was performed from 1.5-200 μM using absorbance spectra analysis and determination of λmax. Calibration curve served as the readout for all following assays. The 60 mM stock solution was used to make a 120 μM target concentration of 0.2% DMSO in the appropriate buffer of the in vitro related assay (i.e. HHBS buffer). Solubilized compounds were vortex for 10 minutes followed by centrifugation for 15 minutes in 5000 RPM and the supernatant was recovered for absorbance spectra analysis between 200-400 nm.

[4] = cells expressing TRPV1, read-out: TRPV1 IC50
[5] = Table 1, read-out: Kv7.2/7.3 IC50
[6] = Table 1, read-out: Kinetic Sol.
[7] = Tables 4 and 11, read-out: Kinetic Sol.

Row | IC50 [1] [nM] | IC50 [1, 4] [nM] | EC50 [2, 5] [nM] | solubility kinetic [3, 6] [µM] | EC50 ([2]; read-out: Kv7.2/7.3 EC50) [nM] | solubility kinetic [3, 7] [µM] | SMILES | further results
1 | 7800 | 7700 | 2200 | 26.7 (≈ 11.9 µg/mL) |  |  | COC[C@@H](CO)NC(=O)Cc1cc(Sc2c(Cl)cc(F)cc2C(C)C)ccc1F [Compound 415] | 
2 |  | 8000 | 13400 | 66 (≈ 29.1 µg/mL) |  |  | CC(C)c1cc(Cl)cc(Cl)c1C(=O)c1ccc(F)c(CC(=O)NCC(C)(C)O)c1 [Compound 417-4] | 
3 |  | 2100 | 1100 |  | 2100 |  | Cc1cn(-c2ccc(F)c(CC(=O)NCC(C)(C)O)c2)c2c(Cl)cc(Cl)cc12 [Compound 421-6] | Kinetic Sol. ([3]; Table 1): 3.4
4 | 1800 |  |  |  |  | 3400 (≈ 1440 µg/mL) | Cc1cn(-c2ccc(F)c(CC(=O)NCC(C)(C)O)c2)c2c(Cl)cc(Cl)cc12 [Compound 421] | EC50 ([2]; read-out: hKv7.2/3 EC50 HCS): 824 nM
5 |  | 1900 | 540 |  | 500 |  | O=C(Cc1cc(-n2cc(Cl)c3cc(Cl)cc(Cl)c32)ccc1F)NCCO [Compound 627] | IC50 ([1]; read-out: CAP hTRPV1 IC50 HCS): 1900 nM; Kv7.2/3 activation (words) [2]: significant hKv7.2/3 activation even at picomolar concentrations; activation at 0.01 µM ([2]; 10 nM range): ~30%
6 | 19000 | 19300 | 1100 | 40 (≈ 17.6 µg/mL) |  | 37000 (≈ 16300 µg/mL) | O=C(Cc1cncc(-n2cc(Cl)c3cc(Cl)cc(Cl)c32)c1)N[C@@H]1COC[C@H]1O [Compound 661] | IC50 ([1]; read-out: CAP hTRPV1 IC50 HCS): 19100 nM; Kv7.2/3 activation (words) [2]: partial yet potent facilitation of Kv7.2/3 activity; Emax ([2]; read-out: Kv7.2/3 maximal opening vs. control): 21%; EC50 ([2]; read-out: hKv7.2/3 EC50 HCS): 0.001 nM
7 | 8000 |  |  |  | 700 |  | CC(C)c1cc(Cl)cc(Cl)c1Nc1ccc(F)c(CC(=O)NCC(C)(C)O)c1 [NH91, reference compound] | solubility kinetic ([3]; Kinetic Sol., Tables 4 and 11): 20 µM (≈ 8.55 µg/mL); solubility kinetic ([3]; read-out: Kinetic solubility): 20 µM (≈ 8.55 µg/mL)

Row | SMILES | IC50 [1] [nM] | IC50 [1, 4] [nM] | EC50 [2, 5] [nM] | solubility kinetic [3, 6] [µM] | EC50 ([2]; read-out: Kv7.2/7.3 EC50) [nM] | solubility kinetic [3, 7] [µM] | further results
8 | O=C(Cc1nccc(-n2cc(Cl)c3cc(Cl)cc(Cl)c32)n1)NC1COCC1O (centres unmarked) [Compound 760] |  |  |  |  |  | 57000 (≈ 25200 µg/mL) | solubility kinetic ([3]; read-out: Kinetic solubility): 57 µM (≈ 25.2 µg/mL)
